Test results published in publication PMC8326665, “Branebrutinib (BMS-986195), a Bruton’s Tyrosine Kinase Inhibitor, Resensitizes P-Glycoprotein-Overexpressing Multidrug-Resistant Cancer Cells to Chemotherapeutic Agents” (Frontiers in Cell and Developmental Biology, 2021).

Target: T1, P-glycoprotein (P-gp/ABCB1) (Homo sapiens, UniProt P08183)
T1 construct: full-length human P-gp; MDR1 baculovirus in High-Five insect cell total membranes (ATPase); transfected MDR19-HEK293 cells (calcein efflux)
Experiment: vanadate-sensitive ATPase activity, endpoint inorganic phosphate assay, insect cell membranes
Type: biochemical
Excerpt: vanadate-sensitive ATPase activity, endpoint inorganic phosphate assay, insect cell membranes on P-glycoprotein (P-gp/ABCB1) | half maximal effective concentration (EC50) value

T1 sequence (P08183 whole entry): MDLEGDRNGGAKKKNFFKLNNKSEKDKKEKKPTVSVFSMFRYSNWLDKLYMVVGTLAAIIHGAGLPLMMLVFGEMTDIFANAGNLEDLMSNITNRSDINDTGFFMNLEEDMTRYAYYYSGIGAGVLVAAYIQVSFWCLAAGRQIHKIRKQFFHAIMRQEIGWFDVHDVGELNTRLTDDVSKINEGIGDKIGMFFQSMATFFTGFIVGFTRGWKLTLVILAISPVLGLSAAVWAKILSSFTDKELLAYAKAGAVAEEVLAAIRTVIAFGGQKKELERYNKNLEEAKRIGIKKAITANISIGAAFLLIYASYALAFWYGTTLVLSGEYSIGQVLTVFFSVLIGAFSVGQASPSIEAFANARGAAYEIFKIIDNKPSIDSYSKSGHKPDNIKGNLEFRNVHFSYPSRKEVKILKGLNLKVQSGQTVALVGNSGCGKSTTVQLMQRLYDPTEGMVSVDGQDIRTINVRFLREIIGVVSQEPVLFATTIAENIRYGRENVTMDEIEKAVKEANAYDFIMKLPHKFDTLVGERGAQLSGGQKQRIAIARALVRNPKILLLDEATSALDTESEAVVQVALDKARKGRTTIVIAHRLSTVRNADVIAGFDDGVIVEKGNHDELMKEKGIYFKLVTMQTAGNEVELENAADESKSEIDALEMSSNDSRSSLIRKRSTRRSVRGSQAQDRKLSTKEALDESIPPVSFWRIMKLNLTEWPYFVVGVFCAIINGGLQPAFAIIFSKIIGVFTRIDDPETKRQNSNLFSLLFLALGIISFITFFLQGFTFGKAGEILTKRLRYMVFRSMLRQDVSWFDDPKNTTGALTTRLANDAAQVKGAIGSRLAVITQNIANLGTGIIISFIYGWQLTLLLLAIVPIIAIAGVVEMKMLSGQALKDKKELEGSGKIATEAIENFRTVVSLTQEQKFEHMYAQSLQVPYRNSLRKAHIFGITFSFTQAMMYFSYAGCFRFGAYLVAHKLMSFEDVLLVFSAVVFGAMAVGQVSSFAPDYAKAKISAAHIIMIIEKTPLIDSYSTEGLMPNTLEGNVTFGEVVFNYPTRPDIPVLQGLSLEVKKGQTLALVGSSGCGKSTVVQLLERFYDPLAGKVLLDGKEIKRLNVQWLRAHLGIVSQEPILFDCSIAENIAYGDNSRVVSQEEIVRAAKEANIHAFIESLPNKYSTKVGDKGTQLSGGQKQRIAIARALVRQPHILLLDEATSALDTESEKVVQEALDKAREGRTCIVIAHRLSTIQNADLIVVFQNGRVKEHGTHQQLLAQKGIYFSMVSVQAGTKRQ

With `CC#CC(=O)N[C@H]1CCCN(c2c(F)cc(C(N)=O)c3[nH]c(C)c(C)c23)C1` [branebrutinib] the EC50 was ~4.5 µM.
